US20050277602A1, “Methods employing agonists of P38 map kinase for the treatment of asthma” (priority 2004, published 2005)
Several values for one entry are separate records, joined by “and”; a condition that tells them apart may be missing. Identical values can stand only once. Entries after “also recorded” stand apart in the source; their conditions may differ. Like-named read-outs stand apart in the source and are kept apart here.

What was measured:
[1] = test system: rabbit ASM tissues; test: Relaxation responses to isoproterenol in isolated rabbit ASM tissues half-maximally contracted with ACh; format: cell-based; settings: for effect on relaxation responses to isoproterenol in tissues not exposed to Der p1: control ASM
Protocol: (§1) Following general anesthesia with xylazine (10 mg/kg) and ketamine (50 mg/kg), rabbits were sacrificed with an overdose of pentobarbital (125 mg/kg). As described previously (Grunstein et al. (2001) Am J Physiol Lung Cell Mol Physiol 280:L229-L238), the tracheae were removed via open thoracotomy, the loose connective tissue and epithelium were carefully scraped and removed, and the tracheae were divided into ring segments. Each alternate ring was incubated for 24 hours at room temperature in the presence of either vehicle (saline) alone (control), vehicle containing cysteine (5 mM), or varying concentrations of affinity purified Der p1 allergen (0.1, 0.5, 1.0, 5.0 μg/ml) both in the absence and presence of cysteine, as addition of the latter is required to restore the cysteine protease activity of the purified Der p1. In parallel experiments, 30 min prior to incubation in control or Der p1-containing medium, ASM segments were treated with either the specific cysteine protease inhibitor, E-64 (trans-epoxysuccinyl-L-leucyl-amido (4-guanidino)-butane; 1 μM), the serine protease inhibitor, leupeptin (1 μM), the MEK1/2-specific inhibitors, U0126 (5 μM) or PD98059 (10 μM), or the specific p38 MAP kinase inhibitors, SB202190 (10 μM) or SB203580 (10 μM).
(§2) Following incubation, the ASM segments were placed in organ baths containing modified Krebs-Ringer solution aerated with 5% CO2 in oxygen (pH: 7.35-7.40), and the tissues were attached to force transducers from which isometric tension was continuously monitored on a multichannel recorder, as previously described (Hirst et al. (2002) Am J Respir Crit Care Med 165:1161-71). Cholinergic contractility was then assessed in the ASM segments by cumulative administration of acetylcholine (ACh; 10^−10 to 10^−4 M). Thereafter, the tissues were repeatedly rinsed with fresh buffer, and subsequent relaxation responses to isoproterenol (10^−10-10^−4 M) were generated after the tissues were half-maximally contracted with ACh. The constrictor dose-response curves to ACh were analyzed in terms of each tissue's maximal isometric contractile force (Tmax) to the agonist, and the relaxation responses to isoproterenol were assessed in terms of % maximal relaxation (Rmax) from the initial level of induced cholinergic contraction, and sensitivity to the relaxing agent was determined as the corresponding pD50 value (i.e., geometric mean ED50 value) associated with 50% of Rmax.

[2] = test system: ERK1/2; test: Immunoblot analysis of phosphorylated ERK1/2 in rabbit ASM tissues; format: cell-based; settings: for effect on Der p1-induced expression of phosphorylated ERK1/2: Der p1-exposed ASM pretreated/co-treated with E-64, SB202190 or anisomycin (50 ng/ml)
Protocol: (§3) Protein levels of phosporylated and total ERK1/2 and p38 MAP kinase were assessed by Western blot analysis of whole cell lysates isolated from rabbit ASM tissues following treatment with either vehicle alone or cysteine-activated Der p1 (1 μg/ml), both in the absence and presence of E-64, SB202190, or anisomycin. The tissues were homogenized and proteins extracted in a buffer containing 50 mM Tris-HC 1,150 mM NaCl, 1 mM EDTA (pH 7.4) with 1 mM phenylmethylsulfonyl fluoride, 5 μg/mL aprotinin, and 5 μg/mL leupeptin. Following removal of insoluble debris by centrifugation, gel-loading buffer was added to the supernatants, and extracts were then loaded (using 30 μg total protein/sample) on a 10% SDS-PAGE gel for immunoblotting after transferring to a nitrocellulose membrane. The membranes were blocked with 5% nonfat dry milk and then incubated overnight with monoclonal mouse anti-human phosphotyrosine-threonine (Thr180/Tyr182)-p38 MAP kinase and p38 MAP kinase, and anti-human phosphotyrosine-threonine (Thr202/Tyr204)-p44/42 (ERK1/2) and p44/42 primary antibodies. The kinase levels were detected using enhanced chemiluminescence after a 1-hour incubation with a 1:1,000 dilution of horseradish peroxidase (HRP)-conjugated goat-anti-mouse secondary antibody, followed by exposure to autoradiography film. Protein band intensities were quantified using Alphalmager, and the data normalized relative to those obtained in untreated ASM samples.

[3] = test system: p38 MAP kinase; test: Immunoblot analysis of phosphorylated p38 MAP kinase in rabbit ASM tissues; format: cell-based; settings: for expression of phosphorylated p38 MAP kinase relative to control (unstimulated) ASM: tissues exposed for 30 min, anisomycin 50 ng/ml or Der p1 alone
Protocol: as §3

[4] = test system: rabbit ASM tissues; test: Constrictor responses to acetylcholine in isolated rabbit ASM tissues (organ bath, isometric tension); format: cell-based; settings: for effect on constrictor responses to ACh in tissues not exposed to Der p1: control (vehicle-exposed) ASM; for maximal constrictor response (Tmax) to ACh: mean±SE
Protocol: as §1, §2

[5] = test system: cultured human ASM (HASM) cells; test: IgE-induced release of IL-6 from cultured human ASM cells (ELISA); format: cell-based
Protocol: Human airway smooth muscle cells were purchased from BioWhittaker, Inc., (Walkersville, […].) The cells were cultured in 100 mm dishes in Ham's F 12 nutrient mixture (Invitrogen, Carlsbad Calif.) supplemented with 10% FBS (Hyclone, Logan, Utah) under 5% CO2 environment. After attaining 90% confluence in cell culture, the cells were used for the studies described in Example 2.
Preparations of IgE immune complexes containing human IgE and mouse monoclonal IgG2B (anti-IgE) (Biodesign International, Saco, Me.) at a 15/5 μg ratio were added to cells 24 hr after serum deprivation. The cells were harvested at the indicated time points for immunoblotting and media were collected for ELISA analysis as described below.
IL 6 accumulation in the ASM cell culture media was detected using an ELISA kit for IL 6 purchased from Research Diagnostics Inc. (Flanders, N.J.). Culture media was diluted 1:50 into a sample dilution buffer supplied in the kit. The experiments were carried out according to the manufacturer's protocol.

[6] = test system: OVA-sensitized mice; settings: OVA-sensitized mice treated with U0126; cited from earlier work
[7] = test system: HL-60 leukemia cells; settings: cited from earlier work
[8] = test system: ASM preparations; test: Intracellular cAMP accumulation in ASM preparations (EIA); format: cell-based, rabbit; settings: tissues exposed to Der p1; data not shown
Protocol: Intracellular cAMP levels were assayed in control (untreated) and Der p1-treated ASM preparations under baseline (unstimulated) conditions and at 10 min following administration of isoproterenol (0.1-10 μM). Following stimulation with isoproterenol, the tissues were homogenized and the cAMP levels were measured using the Form a A cyclic AMP “PLUS” EIA kit (Biomol Inc., Plymouth Meeting, Pa.) following manufacturer's protocol.

[9] = Der p1-exposed ASM, E-64 1 μM, leupeptin 1 μM, U0126 5 μM, PD98059 10 μM, SB202190/SB203580 10 μM, anisomycin 50 ng/ml
[10] = Der p1 not pre-activated with cysteine (inactivated), data not shown
[11] = Der p1-exposed tissues, densitometry, 4 experiments

CC(C)C[C@H](NC(=O)[C@H]1O[C@@H]1C(=O)O)C(=O)NCCCCN=C(N)N (relative stereo) [E-64, trans-epoxysuccinyl-L-leucyl-amido (4-guanidino)-butane]
effect of pretreatment on Der p1-induced impaired relaxation responsiveness to isoproterenol [1, 9]: prevented
effect on relaxation responses to isoproterenol in tissues not exposed to Der p1 [1]: no effect
effect on Der p1-induced expression of phosphorylated ERK1/2 [2]: neither the levels of phosphorylated ERK1/2 nor p38 MAP kinase were appreciably altered
effect on Der p1-induced expression of phosphorylated p38 MAP kinase [3]: neither the levels of phosphorylated ERK1/2 nor p38 MAP kinase were appreciably altered
effect of pretreatment on Der p1-induced enhanced constrictor responsiveness to ACh [4, 9]: largely abrogated
effect on constrictor responses to ACh in tissues not exposed to Der p1 [4]: no effect

COc1cccc(-c2cc(=O)c3ccccc3o2)c1N [PD98059]
effect of pretreatment on Der p1-induced impaired relaxation responsiveness to isoproterenol [1, 9]: qualitatively comparable opposing effects; also recorded: largely prevented
effect on relaxation responses to isoproterenol in tissues not exposed to Der p1 [1]: neither of these inhibitors produced a significant change
effect of pretreatment on Der p1-induced enhanced constrictor responsiveness to ACh [4, 9]: qualitatively comparable opposing effects; also recorded: largely prevented
effect on constrictor responses to ACh in tissues not exposed to Der p1 [4]: neither of these inhibitors produced a significant change

Oc1ccc(-c2nc(-c3ccncc3)c(-c3ccc(F)cc3)[nH]2)cc1 [SB202190]
IgE-induced release of IL-6, augmented ([5]; IgE-exposed HASM cells pretreated with SB-202190): approximately 9 fold
effect of pretreatment on Der p1-induced impaired relaxation responsiveness to isoproterenol [1, 9]: further significantly impaired
maximal relaxation (Rmax) to isoproterenol ([1]; Der p1-exposed tissues pretreated with SB202190 (10 μM), mean): 37.6±7.1%
effect on Der p1-induced expression of phosphorylated ERK1/2 [2]: distinctly enhanced
effect of pretreatment on Der p1-induced enhanced constrictor responsiveness to ACh [4, 9]: further augmented
maximal constrictor response (Tmax) to ACh ([4]; Der p1-exposed tissues pretreated with SB202190 (10 μM)): 136.2±6.2 g/g ASM wt.

C[S+]([O-])c1ccc(-c2nc(-c3ccncc3)c(-c3ccc(F)cc3)[nH]2)cc1 (centres unmarked) [SB203580]
effect of pretreatment on Der p1-induced impaired relaxation responsiveness to isoproterenol [1, 9]: qualitatively comparable opposing effects
effect on relaxation responses to isoproterenol in tissues not exposed to Der p1 [1]: neither of these inhibitors produced a significant change
effect of pretreatment on Der p1-induced enhanced constrictor responsiveness to ACh [4, 9]: qualitatively comparable opposing effects
effect on constrictor responses to ACh in tissues not exposed to Der p1 [4]: neither of these inhibitors produced a significant change

N#CC(=C(/N)Sc1ccccc1N)/C(C#N)=C(\N)Sc1ccccc1N [U0126]
effect on IgE-induced release of IL-6 ([5]; IgE-exposed HASM cells, concomitant pretreatment with U-0126): completely abrogated
effect of pretreatment on Der p1-induced impaired relaxation responsiveness to isoproterenol [1]: largely ablated
airway hyperresponsiveness, elevated intrapulmonary eosinophil counts and cytokine levels [6]: significantly inhibit
effect of pretreatment on Der p1-induced enhanced constrictor responsiveness to ACh [4]: completely abrogated

COc1ccc(C[C@H]2NC[C@H](O)[C@H]2OC(C)=O)cc1 [anisomycin]
effect of pretreatment on Der p1-induced impaired relaxation responsiveness to isoproterenol [1, 9]: largely prevented
effect on relaxation responses to isoproterenol in tissues not exposed to Der p1 [1]: no significant effect
effect on Der p1-induced expression of phosphorylated ERK1/2 [2]: largely abrogated
effect on phosphorylated ERK1/2 expression in unstimulated ASM ([2]; anisomycin 50 ng/ml, 30 min, no Der p1): essentially no effect
expression of phosphorylated p38 MAP kinase relative to control (unstimulated) ASM [3]: increased expression
effect of pretreatment on Der p1-induced enhanced constrictor responsiveness to ACh [4, 9]: completely abrogated
effect on constrictor responses to ACh in tissues not exposed to Der p1 [4]: no effect
stimulated ERK activity ([7]; stimulated HL-60 cells): inhibits
basal ERK activity ([7]; unstimulated HL-60 cells): no effect

CC(=O)N[C@@H](CC(C)C)C(=O)N[C@@H](CC(C)C)C(=O)N[C@H](C=O)CCCNC(=N)N [leupeptin]
effect of pretreatment on Der p1-induced impaired relaxation responsiveness to isoproterenol [1, 9]: unaffected
effect of pretreatment on Der p1-induced enhanced constrictor responsiveness to ACh [4, 9]: unaffected

B1: Der p1: affinity purified house dust mite allergen with intrinsic cysteine protease activity, activated with cysteine (protein, UniProt P08176 99-320, looked up)
Peptidase 1: TNACSINGNAPAEIDLRQMRTVTPIRMQGGCGSCWAFSGVAATESAYLAYRNQSLDLAEQELVDCASQHGCHGDTIPRGIEYIQHNGVVQESYYRYVAREQSCRRPNAQRFGISNYCQIYPPNVNKIREALAQTHSAIAVIIGIKDLDAFRHYDGRTIIQRDNGYQPNYHAVNIVGYSNAQGVDYWIVRNSWDTNWGDNGYGYFAANIDLMMIEEYPYVVIL
isoproterenol-induced cAMP accumulation relative to control (untreated) ASM [8]: reduced
sensitivity to isoproterenol (pD50) ([1]; ASM exposed 24 h to Der p1, mean±SE): 5.99±0.04 -log M
maximal relaxation (Rmax) to isoproterenol ([1]; ASM exposed 24 h to cysteine-activated Der p1, mean±SE): 37.9±4.9% and 48.8±4.7%
effect on relaxant responsiveness [1, 10]: no effect
maximal enhanced expression of phosphorylated ERK1/2 above basal (pretreatment) level [2, 11]: 5.8 fold
maximal enhanced expression of phosphorylated p38 MAP kinase above basal (pretreatment) level [3, 11]: 3.2 fold
expression of phosphorylated p38 MAP kinase relative to control (unstimulated) ASM [3]: increased expression
maximal constrictor response (Tmax) to ACh ([4]; ASM exposed 24 h to cysteine-activated Der p1 (1 μg/ml)): 133.7±8.4 g/g ASM wt. and 123.8±6.5 g/g ASM wt. and 119.0±8.2 g/g ASM wt.
effect on constrictor responsiveness [4, 10]: no effect
